Laboratory results as given in patent US5349127A, “Expression of herbicide metabolizing cytochromes P450” (priority 1992, dated 1994).

Tested on: Arabidopsis thaliana seedlings
Assay: Seed germination assay of transgenic Arabidopsis (Example 26)
Type: in vivo
Parameters: Visual Inhibition Ratings of Seedlings: key: 4: complete inhibition; 1: no inhibition
Conditions: for #R number of resistant seedlings / #S number of sensitive seedlings / % R percent of seedlings which are resistant: 10015 5 ppb
Description: T2 seed was harvested from selected putative transformants and sown on GM medium containing 50 mg/l kanamycin and that containing 5 ppb 10015. Plates were sealed with filter tape, cold treated for 2 or more days at 4° C., and then incubated for 10 to 20 days at 23° C. under constant illumination as described above. Seedlings were scored as resistant (green, true leaves develop) and sensitive (no true leaves develop). […] The percent of resistant seedlings is inversely proportional with the two selections. Kanamycin is a positive selection for those seedlings that carry the foreign DNA.
Selected T2 seedlings that were kanamycin resistant were transplanted to soil and were grown to maturity at 21° C. daytime (14 hours) 18° C. nighttime (10 hours) at 65-80% relative humidity. T3 seed was collected, sterilized, and germinated on GM medium containing 50 mg/l kanamycin and that containing 5 ppb 10015. Plates were sealed with filter tape, cold treated for 2 or more days at 4° C., and then incubated for 10 to 20 days at 23° C. under constant illumination as described above. Two of the six plants produced seed that was 100% resistant to kanamycin and 100% sensitive to 10015; they are homozygous for the inserted DNA. The other four parents are heterozygous and show an inverse proportion of kanamycin and 10015 resistant seedlings. […] Therefore, seedlings expressing the P450SU1 gene can be negatively selected.
Germination assays of homozygous seed on various concentrations of 10015 were performed to assay the relative sensitivity to 10015 produced by the three different promoters and between independent transformants. Seed was sterilized, sown on GM medium with 0, 0.5, 1, 2, 5, 10 and 20 ppb 10015, incubated, and scored as described above. In addition, seedlings are rated on a scale of one to three for the amount of growth.
Over 500 seed that are homozygous for the P450SU1 coding region were sown on the same plates. The plates were sealed, cold-treated, and incubated as previously described. […] Wild type seedlings were unaffected by the dying transformed seedlings. In addition, when greater than 10,000 seed of a homozygous Cab-SU111 plant was sown on GM medium with 10 ppb 10015, then cold-treated and incubated as described above, eighteen seedlings were resistant to 10015 and were unaffected by neighboring seedlings.

`COc1cc(OC)nc(NC(=O)NS(=O)(=O)c2cccc3c2S(=O)(=O)N(C(C)C)C3)n1` [compound 10015] was tested, and the “Visual Inhibition Ratings of Seedlings” value (12.1.1 Cab-SU111, 1 ppb 10015) was 1, the “Visual Inhibition Ratings of Seedlings” value (12.1.1 Cab-SU111, 2 ppb 10015) was 1 and the “Visual Inhibition Ratings of Seedlings” value (12.1.1 Cab-SU111, 5 ppb 10015) was 2. For the same compound, the “Visual Inhibition Ratings of Seedlings” value (12.1.1 Cab-SU111, 10 ppb 10015) was 4, the “Visual Inhibition Ratings of Seedlings” value (12.1.1 Cab-SU111, 20 ppb 10015) was 4 and the “Visual Inhibition Ratings of Seedlings” value (12.16.2 Cab-SU111, 1 ppb 10015) was 1. For the same compound, the “Visual Inhibition Ratings of Seedlings” value (12.16.2 Cab-SU111, 2 ppb 10015) was 1, the “Visual Inhibition Ratings of Seedlings” value (12.16.2 Cab-SU111, 5 ppb 10015) was 1 and the “Visual Inhibition Ratings of Seedlings” value (12.16.2 Cab-SU111, 10 ppb 10015) was 1. The “Visual Inhibition Ratings of Seedlings” value (12.16.2 Cab-SU111, 20 ppb 10015) was 1, the “Visual Inhibition Ratings of Seedlings” value (12.20.5 Cab-SU111, 1 ppb 10015) was 1 and the “Visual Inhibition Ratings of Seedlings” value (12.20.5 Cab-SU111, 2 ppb 10015) was 2. The “Visual Inhibition Ratings of Seedlings” value (12.20.5 Cab-SU111, 5 ppb 10015) was 3, the “Visual Inhibition Ratings of Seedlings” value (12.20.5 Cab-SU111, 10 ppb 10015) was 4 and the “Visual Inhibition Ratings of Seedlings” value (12.20.5 Cab-SU111, 20 ppb 10015) was 4. The “Visual Inhibition Ratings of Seedlings” value (13.3.1 SU18, 1 ppb 10015) was 1, the “Visual Inhibition Ratings of Seedlings” value (13.3.1 SU18, 2 ppb 10015) was 1 and the “Visual Inhibition Ratings of Seedlings” value (13.3.1 SU18, 5 ppb 10015) was 2. For the same compound, the “Visual Inhibition Ratings of Seedlings” value (13.3.1 SU18, 10 ppb 10015) was 4, the “Visual Inhibition Ratings of Seedlings” value (13.3.1 SU18, 20 ppb 10015) was 4 and the “Visual Inhibition Ratings of Seedlings” value (13.4.6 SSU-SU111, 1 ppb 10015) was 1. The “Visual Inhibition Ratings of Seedlings” value (13.4.6 SSU-SU111, 2 ppb 10015) was 1, the “Visual Inhibition Ratings of Seedlings” value (13.4.6 SSU-SU111, 5 ppb 10015) was 3 and the “Visual Inhibition Ratings of Seedlings” value (13.4.6 SSU-SU111, 10 ppb 10015) was 4. The “Visual Inhibition Ratings of Seedlings” value (13.4.6 SSU-SU111, 20 ppb 10015) was 4, the “Visual Inhibition Ratings of Seedlings” value (17.1.10 SU18, 1 ppb 10015) was 1 and the “Visual Inhibition Ratings of Seedlings” value (17.1.10 SU18, 2 ppb 10015) was 1. For the same compound, the “Visual Inhibition Ratings of Seedlings” value (17.1.10 SU18, 5 ppb 10015) was 3, the “Visual Inhibition Ratings of Seedlings” value (17.1.10 SU18, 10 ppb 10015) was 4 and the “Visual Inhibition Ratings of Seedlings” value (17.1.10 SU18, 20 ppb 10015) was 4. The “Visual Inhibition Ratings of Seedlings” value (17.17.3 SU18, 1 ppb 10015) was 1, the “Visual Inhibition Ratings of Seedlings” value (17.17.3 SU18, 5 ppb 10015) was 1 and the “Visual Inhibition Ratings of Seedlings” value (17.17.3 SU18, 10 ppb 10015) was 2. For the same compound, the “Visual Inhibition Ratings of Seedlings” value (17.17.3 SU18, 20 ppb 10015) was 4, the “Visual Inhibition Ratings of Seedlings” value (17.74.4 SSU-SU111, 1 ppb 10015) was 1 and the “Visual Inhibition Ratings of Seedlings” value (17.74.4 SSU-SU111, 2 ppb 10015) was 1. For the same compound, the “Visual Inhibition Ratings of Seedlings” value (17.74.4 SSU-SU111, 5 ppb 10015) was 2, the “Visual Inhibition Ratings of Seedlings” value (17.74.4 SSU-SU111, 10 ppb 10015) was 3 and the “Visual Inhibition Ratings of Seedlings” value (17.74.4 SSU-SU111, 20 ppb 10015) was 3. For the same compound, the “Visual Inhibition Ratings of Seedlings” value (17.92.3 SSU-SU111, 1 ppb 10015) was 1, the “Visual Inhibition Ratings of Seedlings” value (17.92.3 SSU-SU111, 2 ppb 10015) was 1 and the “Visual Inhibition Ratings of Seedlings” value (17.92.3 SSU-SU111, 5 ppb 10015) was 1. The “Visual Inhibition Ratings of Seedlings” value (17.92.3 SSU-SU111, 10 ppb 10015) was 1, the “Visual Inhibition Ratings of Seedlings” value (17.92.3 SSU-SU111, 20 ppb 10015) was 1 and the “#R number of resistant seedlings” value (T2 seed ID 12-1, pCab-SU111) was 3. The “#S number of sensitive seedlings” value (T2 seed ID 12-1, pCab-SU111) was 10, the “% R percent of seedlings which are resistant” value (from here on “% R percent”) (T2 seed ID 12-1, pCab-SU111) was 23% and the “#R number of resistant seedlings” value (T2 seed ID 12-2, pCab-SU111) was 13. For the same compound, the “#S number of sensitive seedlings” value (T2 seed ID 12-2, pCab-SU111) was 0, the “% R percent” value (T2 seed ID 12-2, pCab-SU111) was 100% and the “#R number of resistant seedlings” value (T2 seed ID 12-4, pCab-SU111) was 12. The “#S number of sensitive seedlings” value (T2 seed ID 12-4, pCab-SU111) was 8, the “% R percent” value (T2 seed ID 12-4, pCab-SU111) was 60% and the “#R number of resistant seedlings” value (T2 seed ID 12-5, pCab-SU111) was 15. The “#S number of sensitive seedlings” value (T2 seed ID 12-5, pCab-SU111) was 0, the “% R percent” value (T2 seed ID 12-5, pCab-SU111) was 100% and the “#R number of resistant seedlings” value (T2 seed ID 12-6, pCab-SU111) was 5. For the same compound, the “#S number of sensitive seedlings” value (T2 seed ID 12-6, pCab-SU111) was 9, the “% R percent” value (T2 seed ID 12-6, pCab-SU111) was 36% and the “#R number of resistant seedlings” value (T2 seed ID 12-7, pCab-SU111) was 9. The “#S number of sensitive seedlings” value (T2 seed ID 12-7, pCab-SU111) was 13, the “% R percent” value (T2 seed ID 12-7, pCab-SU111) was 40% and the “#R number of resistant seedlings” value (T2 seed ID 12-8, pCab-SU111) was 1. For the same compound, the “#S number of sensitive seedlings” value (T2 seed ID 12-8, pCab-SU111) was 7, the “% R percent” value (T2 seed ID 12-8, pCab-SU111) was 13% and the “#R number of resistant seedlings” value (T2 seed ID 12-9, pCab-SU111) was 3. The “#S number of sensitive seedlings” value (T2 seed ID 12-9, pCab-SU111) was 9, the “% R percent” value (T2 seed ID 12-9, pCab-SU111) was 25% and the “#R number of resistant seedlings” value (T2 seed ID 12-10, pCab-SU111) was 9. For the same compound, the “#S number of sensitive seedlings” value (T2 seed ID 12-10, pCab-SU111) was 0, the “% R percent” value (T2 seed ID 12-10, pCab-SU111) was 100% and the “#R number of resistant seedlings” value (T2 seed ID 12-11, pCab-SU111) was 4. For the same compound, the “#S number of sensitive seedlings” value (T2 seed ID 12-11, pCab-SU111) was 0, the “% R percent” value (T2 seed ID 12-11, pCab-SU111) was 100% and the “#R number of resistant seedlings” value (T3 seed ID 12-1-1, pCab-SU111) was 0. For the same compound, the “#S number of sensitive seedlings” value (T3 seed ID 12-1-1, pCab-SU111) was 196, the “% R percent” value (T3 seed ID 12-1-1, pCab-SU111) was 0% and the “#R number of resistant seedlings” value (T3 seed ID 12-1-2, pCab-SU111) was 0. For the same compound, the “#S number of sensitive seedlings” value (T3 seed ID 12-1-2, pCab-SU111) was 191, the “% R percent” value (T3 seed ID 12-1-2, pCab-SU111) was 0% and the “#R number of resistant seedlings” value (T3 seed ID 12-1-3, pCab-SU111) was 42. For the same compound, the “#S number of sensitive seedlings” value (T3 seed ID 12-1-3, pCab-SU111) was 90, the “% R percent” value (T3 seed ID 12-1-3, pCab-SU111) was 32% and the “#R number of resistant seedlings” value (T3 seed ID 12-1-4, pCab-SU111) was 80. The “#S number of sensitive seedlings” value (T3 seed ID 12-1-4, pCab-SU111) was 129, the “% R percent” value (T3 seed ID 12-1-4, pCab-SU111) was 37% and the “#R number of resistant seedlings” value (T3 seed ID 12-1-5, pCab-SU111) was 99. The “#S number of sensitive seedlings” value (T3 seed ID 12-1-5, pCab-SU111) was 177, the “% R percent” value (T3 seed ID 12-1-5, pCab-SU111) was 36% and the “#R number of resistant seedlings” value (T3 seed ID 12-1-6, pCab-SU111) was 83. The “#S number of sensitive seedlings” value (T3 seed ID 12-1-6, pCab-SU111) was 152, the “% R percent” value (T3 seed ID 12-1-6, pCab-SU111) was 35% and the “#R number of resistant seedlings” value (WT) was 58. The “#S number of sensitive seedlings” value (WT) was 5, the “% R percent” value (WT) was 92% and the “Visual Inhibition Ratings of Seedlings” value (Wild type, 1 ppb 10015) was 1. The “Visual Inhibition Ratings of Seedlings” value (Wild type, 2 ppb 10015) was 1, the “Visual Inhibition Ratings of Seedlings” value (Wild type, 5 ppb 10015) was 1 and the “Visual Inhibition Ratings of Seedlings” value (Wild type, 10 ppb 10015) was 1. The “Visual Inhibition Ratings of Seedlings” value (Wild type, 20 ppb 10015) was 1.
